In US20260007733A1, “Specific Saccharide Fragment for Development of Vibrio Cholerae Vaccines” (priority 2024, published 2026):

Tested on: IgG antibodies in anti-sera immunized with the lipopolysaccharide of the V. cholerae O100 serotype
Assay: Glycan microarray screening of saccharide fragments with rabbit anti-sera
Format: binding
Details: rabbit sera diluted 1:200; goat anti-rabbit IgG secondary antibodies 1:400; FIG. 9
Description: Step 1: The obtained sugar fragment is dissolved in a 50 mM phosphate solution (pH=8.5), printed onto the microarray using a microarray spotter, and incubated at room temperature and 65% humidity overnight to covalently bind the saccharide fragment to the microarray; and after incubation, the microarray is quenched by treatment with a mixed solution of […] solution (pH=9) at 50° C. for 1 h.
Step 2: The glycan microarray is probed with diluted rabbit anti-sera and co-incubated to specifically bind IgG antibodies in the anti-sera to the saccharide fragment, and unbound serum antibodies are washed away; and subsequently, fluorescently labeled secondary antibodies (anti-IgG antibodies) are used to bind the IgG antibodies on the microarray and incubated, and unbound secondary antibodies are washed away.
Synthetic oligosaccharides and LPS were dissolved in a coupling buffer (50 mM sodium phosphate, pH=8.5) for printing onto a “CodeLink” slide (SurModics Co., Ltd.) using an RMA-Arrayer 96 (Rayme China). Then the slide was incubated overnight in a humidifying chamber at 26° C. and 55% humidity. The slide and the microarray were incubated in a quenching buffer ([…] ethanolamine) at 50° C. for 1 h. […]

For CC(=O)NC1C(O)[C@H](NC(C)=O)C(C)O[C@H]1OCN (stereo partly shown) [Compound 10], the “antigenicity / recognition by the antibodies (glycan microarray, fluorescence)” value was “cannot be recognized by the antibodies”.
